Laboratory results taken from a melting point compilation (Tetko et al.; mined from patent text by program, amines drawn as free bases though some values may be those of a salt).
Residues, ends and D or L forms follow the SMILES beside them. *: point of attachment. Tos = Cc1ccc(S(=O)(=O)*)cc1

Row | SMILES | melting point
1 | CC(c1ccc(C(F)(F)F)cc1)N(O)C(N)=O (stereo not given) | 133 to 135 °C
2 | Cc1cccc(CON2C(C)(C)CC(O)CC2(C)C)c1 | 66 to 67 °C
3 | CC(C)(C)c1cc(CCc2ccccc2NC(=O)NCC(C)(C)c2ccc(N3CCCC3)cc2)cc(C(C)(C)C)c1O | 195 to 196 °C
4 | O=C1Nc2ccc(NC(=O)c3cccn(-c4ccc(F)cc4)c3=O)cc2/C1=C/c1ccc[nH]1 | > 300 °C
5 | CC1(C)CCC(C)(C)c2cc3[nH]c(S)nc3cc21 | > 300 °C
6 | Cc1cc2c(cc1Cl)C(NCCC1CCN(C(=O)OC(C)(C)C)CC1)(c1ccccc1Cl)C(=O)N2 (stereo not given) | 245 to 248 °C
7 | O=c1cc(OCc2ccccc2)c2ccc(OCCc3ccc(F)cc3)cc2o1 | 120 °C
8 | COC(=O)COc1ccc(-c2ccc(C(=O)OCc3ccccc3)cc2)cc1-c1ccc2c(c1)C(C)(C)CCC2(C)C | 104 to 106 °C
9 | O=C1C(Cc2ccccc2Cl)c2cc([N+](=O)[O-])ccc2ON1CCO (stereo not given) | 108 to 110 °C
10 | O=C(O)C1Oc2ccc3ccccc3c2C=C1C(F)(F)F (stereo not given) | 245 to 250 °C
11 | CCC(=O)Nc1snc(N(CC)CC)c1C#N | 188 to 189 °C
12 | Clc1nc(Cl)c2ccsc2n1 | 116 °C
13 | COc1cc(Cl)cc(C)c1Nc1nc2c(Cl)ccc(C(O)(C(C)C)C(C)C)c2n1C | 218 to 219 °C
14 | CCc1cc2[nH]c(=O)c(=O)[nH]c2cc1Cl | > 315 °C
15 | Cc1cc(C(F)(F)F)n2nc(S(=O)(=O)Nc3c(Cl)cccc3Cl)nc2n1 | 237 to 239 °C
16 | CC1CCCCN1C(=O)C1Cc2ccccc2N1c1ccc(=O)n(C)n1 (stereo not given) | 96 to 98 °C
17 | COc1cc2c(cc1OC)C(C(=O)O)SCC2 (stereo not given) | 167 to 169 °C
18 | CCCC(=O)c1cc2c(s1)CCC1CC(=O)N(c3ccc(Cl)cc3)N=C21 (stereo not given) | 157 to 159 °C
19 | O=Cc1ccc2cc(OCc3ccccc3)ccc2c1 | 107 to 108 °C

Row | SMILES | melting point
20 | CN(C)C1CCN(c2ccc(-c3[nH]nc4c3C(=O)c3c(NC(=O)NN5CCOCC5)cccc3-4)cc2)CC1 | 258 °C
21 | COC(=O)c1n[nH]c(=O)c2ccc(Cl)cc12 | 222 to 223 °C
22 | Cn1ncc(C(=O)O)c1C(=O)Nc1ccn2nc(-c3ccnc(F)c3)nc2c1 | > 290 °C
23 | CCCCc1nc(Cl)c(C=O)n1Cc1ccc(-c2nnn(C(c3ccccc3)(c3ccccc3)c3ccccc3)n2)cc1 | 154 to 157 °C
24 | CCCCCCCCCCCCCCOc1ccc(CC(=O)Nc2cccc(I)c2)cc1 | 108 to 110 °C
25 | Cc1ccc(-n2nc(C(C)(C)C)cc2NC(=O)Nc2ccc(OCC(=O)N3CCOCC3)c3ccccc23)cc1 | 240 to 241 °C
26 | C=CS(=O)(=O)CC(=O)N1CCN(C(=O)CS(=O)(=O)C=C)CC1 | 215 °C
27 | N#Cc1cc(-c2ccoc2)c2ccc(COc3cc(F)cc(-c4ccccn4)c3)cc2n1 | 198 to 200 °C
28 | CN1CCN(c2ccc(N/C=C3\C(=O)NC(=O)c4ccc(C(=O)N(C)C)cc43)cc2)CC1 | > 300 °C
29 | COc1ccc(OCCOCn2cnc3ncnc(N)c32)cc1 | 129 to 130 °C
30 | CC(C)(C)c1ccc(C2=NC[C@@H](OC(=O)Nc3ccccc3)[C@H](c3ccccc3)O2)cc1 (racemic) | 80 °C
31 | CCOC(=O)c1cn(-c2cc(C)on2)cn1 | 142 to 143 °C
32 | CCc1cccc2c1nc(-c1c(F)cccc1F)n2Cc1c(F)cccc1F | 165 to 166 °C
33 | CCCCCC(Br)C(Br)CC(Br)C(Br)CCCCCCCBr (stereo not given) | 62 to 64 °C
34 | CCNC(=O)[C@@H]1CCCN1C(=O)[C@H](C)NC(=O)C1CCCCC1 | 190 to 192 °C
35 | CN1C2CCC1CN(c1ccc(C#Cc3ccc(N)cc3)nn1)C2 | 204 to 210 °C
36 | O=C(NO)C1(NS(=O)(=O)c2ccc(OCc3ccc(Cl)cc3Cl)cc2)CC1c1ccccc1 (stereo not given) | 164 to 169 °C
37 | CN1CSC(Cc2cc(C(C)(C)C)c(O)c(C(C)(C)C)c2)C1=O (stereo not given) | 102 to 105 °C
38 | Cc1c(C(=O)OCc2ccccc2)[nH]c2cc3c(sc4ccccc43)c(C)c12 | 203 to 204 °C

Further lines, results first:

Row | melting point | SMILES
39 | 215 to 216 °C | Cc1cccc(CO)c1CNc1cc(Br)cc2c1nc(C)n2C
40 | 290 to 294 °C | O=C1CN(N=Cc2ncc(-c3ccc(Cl)cc3)o2)C(=O)N1
41 | 149 to 150 °C | CCOC(=O)c1cc2cc(OC(F)(F)F)cc(N(C)S(=O)(=O)c3cccs3)c2[nH]1
42 | 136 °C | O=c1[nH]c2ccccc2n1CCN1CCN(Cc2ccccc2)CC1
43 | 95 to 96 °C | COC(=O)[C@H](Cc1ccc([N+](=O)[O-])cc1)NC(=O)OC(C)(C)C
44 | 203 to 205 °C | CC1CNc2c(ccc(NC3=NCCN3)c2Br)N1 (single isomer, unassigned; (+))
45 | 86 to 88 °C | CCN(C(=O)OC(C)(C)C)n1c(C)nc(N2CCc3ccccc3CC2)c(C#N)c1=O
46 | 157 to 158 °C | CC(C)(OCc1nn(Cc2ccccc2)c2ccccc12)C(=O)NCC(=O)O
47 | 185 to 186 °C | O=C1Nc2ccccc2C1C(=O)c1ccoc1 (stereo not given)
48 | 96 to 98 °C | CC(C)(C)OC(=O)Nc1cc(OCc2ccccc2)cc(OCc2ccccc2)c1
49 | 285 to 290 °C | Cn1c(CO)nc2cnccc21
50 | 124 to 126 °C | C[C@@](N)(Cc1ccc(-c2cncnc2)cc1)C(=O)Nc1cc(Cl)cc(Cl)c1
51 | 115 °C | CC(=O)OC1CSC(Oc2cncc(-c3ccc(F)cc3Cl)c2)C(OC(C)=O)C1OC(C)=O (stereo not given)
52 | 86 to 88 °C | c1ccc(CN2CCCCC2)c(CN2CCCCC2)c1
53 | 179 to 180 °C | CC(C)c1[nH]nc(C(N)=O)c1[N+](=O)[O-]
54 | 137 to 139 °C | Cc1cc2c(s1)CCCN(CCN1CCN(c3ncccn3)CC1)C2=O

Row | melting point | SMILES
55 | 125 to 126 °C | COc1ccc(C(=O)NCCCCOc2ccc(-n3ccnc3)cc2)cc1
56 | 191 to 193 °C | COc1cc2c(cc1O)CCC1C2CCC2(C)C(O)C=CC12 (stereo not given)
57 | 160 to 162 °C | Cc1ccc(S(=O)(=O)N2CCC[C@H]2C(=O)N[C@@H](C)C(=O)O)cc1 (Tos-Pro-Ala-OH)
58 | 89 to 90 °C | CC(CN=C(c1ccccc1)c1ccccc1)N=C(c1ccccc1)c1ccccc1 (stereo not given)
59 | 234 to 237 °C | COC(=O)c1ccc(-c2ccc(NC(=O)c3ccc(OC)c(C#CCN(C)C)c3)cc2)cc1
60 | 247 °C | Cn1nnc(NC(=O)C2c3ccccc3Oc3ccccc32)n1
61 | 97 to 99 °C | COC(=O)[C@H](Cc1ccc(O)c(C2SCCS2)c1)NC(C)=O
62 | 107 to 108 °C | CCOC(=O)/C=C/c1nc(-c2ccccc2)oc1COc1ccc(OCc2nc(-c3ccccc3)oc2C)cc1
63 | 158 to 160 °C | c1ccc(-c2nn(CCCCCCCCc3nn[nH]n3)c(-c3ccccc3)c2-c2ccccc2)cc1
64 | > 350 °C | O=C1NC(=O)C(=Cc2cc(O)c(O)c([N+](=O)[O-])c2)N1
65 | 125 to 126 °C | COCO[C@H]1C(=O)Nc2ccccc2S[C@H]1c1ccc(OC)cc1
66 | 242 to 243 °C | CC(C)c1cnn2c(O)cc(O)nc12
67 | 262 to 263 °C | CC(C)(O)C#Cc1cccc(Nc2nccc(-c3sc(N)nc3-c3ccccc3)n2)c1
68 | 162 to 163 °C | COc1cc(COc2nn(-c3ccccc3)cc2/C=C/C2=NCCO2)ccc1OCc1nc(-c2ccco2)oc1C
69 | 42 to 43 °C | Cc1cccc(N)c1C=C(Br)Br
70 | 101 to 103 °C | COC(=O)c1cc(OC)c(OCCCN)cc1[N+](=O)[O-]
